According to patent US6710049B2, “Azole compounds as anti-fungal agents” (Ranbaxy Laboratories Limited, priority 2000, dated 2004):
≈ marks a conversion by molar mass, not a printed value.

How the values were obtained:
[1] = test system: Aspergillus fumigatous; test: In vivo anti-fungal activity, ED50 in systemically infected mice; set-up: species or system Swiss albino mice; settings: mice infected i.v. with Aspergillus fumigatous, dosing for five days
Protocol: The in-vivo evaluation of the compound can be carried out at a series of dose levels by oral or I. V. injection to mice which are inoculated I.V. with the minimum lethal dose of Candida albicans, Cryptococcus neoformans or Aspergillus fumigatus by the tail vein. Activity is based on the survival of a treated group of mice after the death of an untreated group of mice. For Aspergillus and Cryptococcus infections, target organs were cultured after treatment to document the number of mice cured of the infection for further assessment of activity.
Method: Briefly, Swiss albino mice weighing 20±2 G were injected intravenously (tail vein) with sufficient fungal cells to kill 100% of the untreated animals for Aspergillus fumigatous strain used. In all cases each group comprised of six mice. Five does levels, utilizing doubling dilution range, were employed per determination ranging from 25 to 1.56 mg/kg BW. Dosing was carried out for five days starting after 30 minutes of infection. […] Treated animals were monitored twice daily for 14 days post infection at which time the experiment was terminated and ED50 was calculated.

[2] = test system: Penicillium spp. isolates; test: Comparative in vitro MIC, isolate panel; type: cell-based
Excerpt: (§1) The in-vitro evaluation of the antifungal activity of the compounds can be performed by determining the minimum inhibitory concentration (MIC) as shown in Table 1 which is the concentration of the test compound in Rosewell Park Memorial Institute (RPMI) 1640 liquid medium buffered with 3-(Morpholino)propanesulphonic acid (MOPS) to pH 7, at which there is significant inhibition of the particular fungi. In practice the National Committee for Clinical Laboratory Standard (NCCLS) M27A document for Candida and Cryptococcus and M38P for Aspergillus was used to determine the MIC against yeast and filamentous fungi with suitable modifications for dermatophytes to other filamentous fungi. Three quality control strains were included each time the MIC were determined and readings recorded only when the Quality Control results fell into the acceptable range. After MIC results had been recorded, 100 μl from each of the well showing no growth was spread over Sabouraud Dextrose Agar (SDA) to determine the minimum fungicidal concentration (MFC) as shown in Table 2.
(§2) A comparative in vitro and in vivo biologically activity data of the compound of our invention, 2-{[1R,2R]-2-(2,4-Difluorophenyl)-2-hydroxy-1-methyl-3-(1H-1,2,4-triazole-1-yl)propyl}-4-[(2′,2′,3′,3′-tetrafluoropropoxyphenyl)-3-(2H,4H)-1,2,4-thiotriazolone (Compound No. 3) with 2-[(1R,2R)-2-(2,4-difluorophenyl)-2-hydroxy-1-methyl-3-(1H-1,2,4-triazol-1-yl)propyl]-4-(2′,2′,3′,3′-tetraflouropropoxyphenyl)-3(2H,4H)-1,2,4-triazolone (TAK 187) and standard antifungal pharmaceuticals is given below: […]

[3] = test system: Rhizoupus spp. isolates; test: Comparative in vitro MIC, isolate panel; type: cell-based
Excerpt: as §1, §2

[4] = test system: All Candida isolates; test: Comparative in vitro MIC, isolate panel; type: cell-based
Excerpt: as §1, §2

[5] = test system: All Filamentous isolates; test: Comparative in vitro MIC, isolate panel; type: cell-based
Excerpt: as §1, §2

[6] = test system: Aspergillus fumigatus isolates; test: Comparative in vitro MIC, isolate panel; type: cell-based
Excerpt: as §1, §2

[7] = test system: Fusarium spp. isolates; test: Comparative in vitro MIC, isolate panel; type: cell-based
Excerpt: as §1, §2

[8] = test system: All fungal pathogens; test: Comparative in vitro MIC, isolate panel; type: cell-based
Excerpt: as §1, §2

[9] = test system: T. rubrum; test: Activity against dermatophytes; type: cell-based; set-up: unit not given here
Excerpt: as §1, §2

[10] = test system: T. mentagrophyte; test: Activity against dermatophytes; type: cell-based; set-up: unit not given here
Excerpt: as §1, §2

[11] = test system: filamentous species of fungi; test: Activity against filamentous fungi (statement in words); type: cell-based
Excerpt: as §1

[12] = serum drug concentration after several days of treatment 25 to 100 times above the MIC for C. neoformans; cited from earlier work

**Q.** What does the source list for `C[C@@H](n1ncn(-c2ccc(OCC(F)(F)C(F)F)cc2)c1=S)[C@](O)(Cn1cncn1)c1ccc(F)cc1F` [Compound No. 3]?
**A.** ED50 ([1]; Day 7 post infection): 2.33 mg/kg body weight; ED50 ([1]; Day 14 post infection): 6.25 mg/kg body weight; MIC50 [2]: 2 µg/mL (≈ 3.58 µM); MIC90 [2]: 8 µg/mL (≈ 14.3 µM); MIC G.M. [2]: 1.516 µg/mL (≈ 2.71 µM); MIC50 [3]: 0.125 µg/mL (≈ 0.224 µM); MIC90 [3]: 0.125 µg/mL (≈ 0.224 µM); MIC G.M. [3]: 0.125 µg/mL (≈ 0.224 µM); MIC50 [4]: 0.5 µg/mL (≈ 0.895 µM); MIC90 [4]: 1 µg/mL (≈ 1.79 µM); MIC G.M. [4]: 0.1 µg/mL (≈ 0.179 µM); MIC50 [5]: 0.25 µg/mL (≈ 0.448 µM); MIC90 [5]: 8 µg/mL (≈ 14.3 µM); MIC G.M. [5]: 0.328 µg/mL (≈ 0.587 µM); MIC50 [6]: 0.125 µg/mL (≈ 0.224 µM); MIC90 [6]: 0.25 µg/mL (≈ 0.448 µM); MIC G.M. [6]: 0.112 µg/mL (≈ 0.201 µM); MIC50 [7]: 8 µg/mL (≈ 14.3 µM); MIC90 [7]: 8 µg/mL (≈ 14.3 µM); MIC G.M. [7]: 8 µg/mL (≈ 14.3 µM); MIC50 [8]: 0.25 µg/mL (≈ 0.448 µM); MIC90 [8]: 2 µg/mL (≈ 3.58 µM); MIC G.M. [8]: 0.285 µg/mL (≈ 0.51 µM); Activity against dermatophytes [9]: 0.004; Activity against dermatophytes [10]: 0.016; activity against clinically important filamentous species of fungi [11]: unexpectedly potent activity; fungicidal character ([11]; b38: against some filamentous fungi): fungicidal

**Q.** Which “detectability in CSF” value [12] does the source give for `CC[C@@H]([C@H](C)O)n1ncn(-c2ccc(N3CCN(c4ccc(OC[C@@H]5CO[C@@](Cn6cncn6)(c6ccc(F)cc6F)C5)cc4)CC3)cc2)c1=O` [SCH 56592] here?
**A.** undetectable

**Q.** For `CN(C/C=C/C#CC(C)(C)C)Cc1cccc2ccccc12` [Terbina], which Activity against dermatophytes [9] is on record?
**A.** 0.016

**Q.** What about the Activity against dermatophytes [10] of the same compound?
**A.** 0.002
